The results in this text go back to ChEMBL document CHEMBL2016461, “A new pancreatic lipase inhibitor from Broussonetia kanzinoki” (Bioorg Med Chem Lett, 2012).

The source made the active and inactive calls. The rule behind the calls is not given here.

Assay [1] concerns the target T1, Pancreatic triacylglycerol lipase (Sus scrofa, UniProt P00591).
T1 sequence (P00591 whole entry): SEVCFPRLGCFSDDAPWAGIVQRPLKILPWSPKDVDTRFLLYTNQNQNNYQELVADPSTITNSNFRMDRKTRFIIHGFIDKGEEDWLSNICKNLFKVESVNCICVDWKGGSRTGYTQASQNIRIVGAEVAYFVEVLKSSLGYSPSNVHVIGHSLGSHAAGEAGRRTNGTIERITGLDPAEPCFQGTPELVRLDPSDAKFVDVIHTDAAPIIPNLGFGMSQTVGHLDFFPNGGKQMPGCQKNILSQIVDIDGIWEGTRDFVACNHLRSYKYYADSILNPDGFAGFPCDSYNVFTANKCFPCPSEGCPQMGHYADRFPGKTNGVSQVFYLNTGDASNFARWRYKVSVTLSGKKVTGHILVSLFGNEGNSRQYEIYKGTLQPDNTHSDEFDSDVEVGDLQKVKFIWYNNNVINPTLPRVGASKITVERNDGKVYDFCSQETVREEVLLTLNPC
In words: Inhibition of porcine pancreatic lipase using p-nitrophenylbutyrate as substrate preincubated for 15 mins prior substrate addition measured after 15 mins by spectrophotometry.

The target in assay [2] is T2, Pancreatic triacylglycerol lipase (Sus scrofa) (UniProt P00591).
T2 sequence (whole entry): T1 sequence (P00591 whole entry)
In words: Inhibition of porcine pancreatic lipase using p-nitrophenylbutyrate as substrate at 100 uM preincubated for 15 mins prior substrate addition measured after 15 mins by spectrophotometry.

The target of assay [3] is T2, Pancreatic triacylglycerol lipase (Sus scrofa). The note with it: 1 uM.
Description: Inhibition of porcine pancreatic lipase using p-nitrophenylbutyrate as substrate at 1 uM preincubated for 15 mins prior substrate addition measured after 15 mins by spectrophotometry
Assay [4] relates to 3T3-L1. Description: Antiadipogenic activity in mouse 3T3L1 cells assessed as cell differentiation measuring inhibition of fat accumulation at 100 uM after 8 days by oil red O-staining based spectrophotometry relative to control. The class given is functional. The note with it: 3T3-L1, 192 h.
Assay [5] has as its target T2, Pancreatic triacylglycerol lipase (Sus scrofa). In words: Non-competitive inhibition of porcine pancreatic lipase using p-nitrophenylbutyrate as substrate preincubated for 15 mins prior substrate addition measured after 15 mins by Lineweaver-Burk plot analysis.
The test system of assay [6] is 3T3-L1. In words: Antiadipogenic activity in mouse 3T3L1 cells assessed as cell differentiation measuring fat accumulation at 100 uM after 8 days by oil red O-staining based spectrophotometry relative to control. The class given is functional.

The term IC50 denotes the midpoint of a concentration-inhibition curve. A low value points to inhibition by little substance. Broadly, the inhibition is the share of the control response that was lost under treatment. Take `COc1ccc(C2CCc3ccc(O)cc3O2)cc1O` (stereo not drawn): in assay [1], the IC50 is above 100 µM. The same compound yielded an inhibition in assay [2] of 24.8%.
In assay [1], `COc1ccc(-c2oc3cc(O)ccc3c(=O)c2O)cc1` had an IC50 above 100 µM. Moreover, in assay [2], the inhibition was 21.8%.
The corresponding values for `COc1ccc(-c2oc3cc(O)ccc3c(=O)c2O)cc1O` are above 100 µM and 38.2%.
The corresponding values for `Oc1ccc(C2CCc3ccc(O)cc3O2)cc1` (stereo not drawn) are 85.1 µM and 55.6%.
`CCCCCCCCCCC[C@@H](C[C@@H]1OC(=O)[C@H]1CCCCCC)OC(=O)[C@H](CC(C)C)NC=O` returned an inhibition in assay [3] of 60.4%.
As to `COc1ccc(CCCc2ccc(O)cc2)c(O)c1` [BROUSSONIN A], half-maximal inhibition in assay [1] (IC50) required 98.7 µM. The inhibition in assay [2] worked out at 50.7%.
`COc1cc(O)ccc1CCCc1ccc(O)cc1` [BROUSSONIN B] registered an IC50 in assay [1] of 75.4 µM. This compound gave an inhibition in assay [2] of 40.4%. The inhibition at 100 µM in the assay on 3T3-L1 [4] was found to be 48%.
As to `COC1=CC(=O)C=CC1(O)CCCc1ccc(O)cc1` (stereo not drawn) [BROUSSONONE A], in assay [5], the inhibition entry is “Active”. In assay [1], this compound gave an IC50 of 28.4 µM. Also, the inhibition in assay [2] was determined as 71.9%. Moreover, the Activity in the assay with 3T3-L1 [6] is recorded as 66%.
